We go through 9 compounds from patent US6004948A, “Derivatives of benzosulphonamides as inhibitors of the enzyme cyclooxygenase II” (Nycomed Austria GmbH, priority 1995, dated 1999).

For one assay, the target named is T1, Human COX 1 (Homo sapiens, UniProt P23219).
T1 construct: arachidonic acid-induced aggregation of washed human thrombocytes; endogenous in cells; host or cells: washed human thrombocytes (platelets)
Kind of assay: Human COX 1 test (arachidonic acid-induced aggregation of washed human thrombocytes). In kind it is cell-based. As to conditions: arachidonic acid 10 μM, 37° C., substance added 2 minutes before, read-out: COX I IC50. Here is the method:
The inhibition of arachidonic acid-induced aggregation of washed human thrombocytes was used as a test system for assessing the inhibition of cyclooxygenase I. The test substances were added to a thrombocyte suspension at 37° C. 2 minutes before the addition of the arachidonic acid (final concentration 10 μM) and the course of aggregation was measured using an aggregometer. By means of a concentration-activity curve the concentration of test substance at which 50% aggregation is measured was determined (IC50).

Another assay concerns the target T2, Human COX-2 (Homo sapiens, UniProt P35354).
T2 construct: endogenous in cells
T2 sequence (P35354 18-604): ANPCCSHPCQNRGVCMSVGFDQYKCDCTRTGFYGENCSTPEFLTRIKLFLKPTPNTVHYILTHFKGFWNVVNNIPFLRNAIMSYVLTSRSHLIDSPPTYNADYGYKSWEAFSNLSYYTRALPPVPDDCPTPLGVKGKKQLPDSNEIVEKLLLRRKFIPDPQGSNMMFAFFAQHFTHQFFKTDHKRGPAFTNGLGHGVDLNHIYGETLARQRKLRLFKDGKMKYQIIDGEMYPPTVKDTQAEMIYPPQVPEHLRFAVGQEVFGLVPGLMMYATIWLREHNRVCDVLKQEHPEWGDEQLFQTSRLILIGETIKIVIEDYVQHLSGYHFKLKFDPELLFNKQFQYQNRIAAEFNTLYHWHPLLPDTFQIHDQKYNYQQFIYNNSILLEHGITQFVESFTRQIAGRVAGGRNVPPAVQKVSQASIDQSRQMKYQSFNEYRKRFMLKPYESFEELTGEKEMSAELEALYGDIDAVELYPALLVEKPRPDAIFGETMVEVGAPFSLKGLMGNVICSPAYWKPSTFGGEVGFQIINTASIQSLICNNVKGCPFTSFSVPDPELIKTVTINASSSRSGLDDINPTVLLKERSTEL
Kind of assay: Human COX-2 test (LPS-stimulated human monocytoid cell line, arachidonic acid, cyclooxygenase products by ELISA). To be noted: for IC50: human monocytoid cell line, LPS-stimulated, half an hour pre-incubation, arachidonic acid 15 minutes, ELISA, read-out: COX II IC50; for COX I/COX II: selectivity obtained from the two tests, ratio of COX I IC50 to COX II IC50. In kind it is cell-based. As for the experimental part:
Cells from a human monocytoid cell line are stimulated with LPS (incubator at 37° C., 5% CO2 -enriched atmosphere and approximately 100% relative humidity), in order to induce COX-2. Then the culture medium (RPMI 1640 enriched with 10% FCS, 2 mM glutamine, […], […] and 1 mM pyruvate) was renewed and potential inhibitors of cyclooxygenase-2, dissolved in culture medium or in phosphate-buffered saline or in any other solvent which is compatible with cell culture, were added and incubated for half an hour as described above. Arachidonic acid was pipetted in and incubation was continued for 15 minutes. The culture supernatant of the cells was removed and its content of products of cyclooxygenase metabolism (such as prostaglandin E2, prostaglandin F1a and thromboxane B2) was measured by ELISA.
A general note: In an ELISA, binding on a coated surface is turned into a signal by an enzyme label.

T1 sequence (P23219 24-599): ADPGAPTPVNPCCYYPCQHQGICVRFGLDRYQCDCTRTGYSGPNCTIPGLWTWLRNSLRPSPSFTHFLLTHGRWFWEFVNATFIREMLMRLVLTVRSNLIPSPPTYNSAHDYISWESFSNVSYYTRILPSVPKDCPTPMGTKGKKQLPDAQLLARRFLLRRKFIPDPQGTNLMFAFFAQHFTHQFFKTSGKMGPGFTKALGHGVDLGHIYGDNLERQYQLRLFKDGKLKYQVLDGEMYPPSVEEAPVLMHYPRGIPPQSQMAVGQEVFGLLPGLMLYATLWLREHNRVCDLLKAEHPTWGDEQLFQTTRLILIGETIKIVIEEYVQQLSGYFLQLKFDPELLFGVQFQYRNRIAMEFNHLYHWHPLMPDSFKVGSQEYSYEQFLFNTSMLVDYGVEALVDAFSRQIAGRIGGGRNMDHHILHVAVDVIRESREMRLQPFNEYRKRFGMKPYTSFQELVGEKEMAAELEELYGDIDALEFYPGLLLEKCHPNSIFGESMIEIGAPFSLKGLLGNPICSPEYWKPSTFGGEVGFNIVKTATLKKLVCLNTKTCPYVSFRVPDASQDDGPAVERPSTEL

In general, IC50 refers to the concentration that gives 50% inhibition. Take `CS(=O)(=O)Nc1ccc(S(N)(=O)=O)cc1Oc1ccc(Cl)cc1Cl` [Example 1, 3-(2,4-Dichlorophenoxy)-4-methylsulphonylamino-benzenesulphonamide]: on Human COX 1, the IC50 was at least 50 µM. Also, at Human COX-2, the IC50 came to 0.1 µM and the “COX I/COX II” value is recorded as at least 500.

`CS(=O)(=O)Nc1cc2c(cc1Oc1ccccc1)S(=O)(=O)NC2` [Example 4, 6-(Phenoxy) -5-methylsulphonylamino-2H-1,2-benzothiazolidin-1,1-dioxide]: the IC50 on Human COX 1 is at least 45 µM. Also, on Human COX-2, the IC50 was 0.11 µM and the “COX I/COX II” value was at least 450.

On to `CS(=O)(=O)Nc1ccc(S(N)(=O)=O)cc1Sc1ccc(F)cc1F` [Example 6, 3-(2,4-Difluorothiophenoxy)-4-methylsulphonylamino-benzenesulphonamide], for which the results for the IC50 at Human COX 1 and at Human COX-2 were 52 µM and 0.2 µM, respectively. For the same compound, the “COX I/COX II” value on Human COX-2 is 260.

For the compound `CS(=O)(=O)Nc1ccc(S(N)(=O)=O)cc1Sc1ccc(Cl)cc1Cl` [Example 7, 3-(2,4-Dichlorothiophenoxy)-4-methylsulphonylamino-benzenesulphonamide], the IC50 at Human COX 1 was determined as 27 µM. In addition, on Human COX-2, the concentration for half-maximal inhibition (IC50) stood at 0.027 µM and the “COX I/COX II” value is listed as 1000.

For `CS(=O)(=O)Nc1ccc(S(N)(=O)=O)cc1Sc1ccc(F)cc1Cl` [Example 8, 3-(2-Chloro-4-fluorothiophenoxy)-4-methylsulphonylamino-benzene-sulphonamide], the IC50 at Human COX 1 is 11 µM. In addition, at Human COX-2, the IC50 was found to be 0.15 µM and the “COX I/COX II” value is recorded as 73.

For the compound `CS(=O)(=O)Nc1ccc(S(N)(=O)=O)cc1Sc1ccc(Cl)cc1` [Example 17, 3-(4-Chlorophenylthio) -4-methylsulphonylaminobenzenesulphonamide], at Human COX 1, the 50% inhibitory concentration (IC50) stood at 60 µM. On Human COX-2, the IC50 was found to be 0.17 µM and the “COX I/COX II” value came to 353.

Take `CS(=O)(=O)Nc1ccc(S(N)(=O)=O)cc1SC1CCCCC1` [Example 19, 3-(Cyclohexylthio)-4-methylsulphonylaminobenzene-sulphonamide]: the figures for the IC50 on Human COX 1 and at Human COX-2 were at least 60 µM and 0.54 µM, respectively. Also, the “COX I/COX II” value at Human COX-2 is given as at least 110.

Take `CS(=O)(=O)Nc1ccc(S(N)(=O)=O)cc1Sc1ccccc1Cl` [Example 25, 3-(2-Chlorophenylthio)-4-methylsulphonylaminobenzene-sulphonamide]: the IC50 on Human COX 1 was at least 35 µM. Moreover, at Human COX-2, the IC50 came out at 0.17 µM and the “COX I/COX II” value is reported as at least 196.

As for `CS(=O)(=O)Nc1ccc(S(N)(=O)=O)cc1Sc1ccc(Br)cc1` [Example 26, 3-(4-Bromophenylthio)-4-methylsulphonylaminobenzenesulphonamide], the IC50 on Human COX 1 is at least 70 µM. At Human COX-2, the IC50 amounted to 0.27 µM and the “COX I/COX II” value is on record as at least 253.
